Measurements published in ChEMBL document CHEMBL1275379, “Indazolylpyrazolopyrimidine as highly potent B-Raf inhibitors with in vivo activity” (J Med Chem, 2010).

Assays:
[1] = target: Vascular endothelial growth factor receptor 2 (Homo sapiens) (UniProt P35968); assay: Inhibition of KDR at 1 uM
[2] = target: Aurora kinase B (Homo sapiens) (UniProt Q96GD4); assay: Inhibition of AURKB at 1 uM
[3] = target: Serine/threonine-protein kinase B-raf (Homo sapiens, UniProt P15056); assay: Inhibition of BRAF at 1 uM
[4] = target: T1, Mitogen-activated protein kinase 14 (Homo sapiens, UniProt Q16539); conditions: 1 uM
Description: Inhibition of MAPK14 at 1 uM

[5] = target: Tyrosine-protein kinase Fes/Fps (Homo sapiens) (UniProt P07332); assay: Inhibition of FES at 1 uM
[6] = target: Tyrosine-protein kinase JAK2 (Homo sapiens) (UniProt O60674); assay: Inhibition of JAK2 at 1 uM
[7] = target: Dual specificity mitogen-activated protein kinase kinase 1 (Homo sapiens) (UniProt Q02750); assay: Inhibition of MAP2K at 1 uM
[8] = target: Vascular endothelial growth factor receptor 1 (Homo sapiens) (UniProt P17948); assay: Inhibition of FLT1 at 1 uM
[9] = target: High affinity nerve growth factor receptor (Homo sapiens) (UniProt P04629); assay: Inhibition of NTRK1 at 1 uM
[10] = target: Receptor-type tyrosine-protein kinase FLT3 (Homo sapiens) (UniProt P36888); assay: Inhibition of FLT3 at 1 uM
[11] = target: Serine/threonine-protein kinase Nek2 (Homo sapiens) (UniProt P51955); assay: Inhibition of NEK2 at 1 uM
[12] = target: T1, Mitogen-activated protein kinase 14; assay: Inhibition of MAPK14
[13] = Inhibition of PRKA at 1 uM
[14] = target: T2, Tyrosine-protein kinase Yes (Homo sapiens, UniProt P07947); conditions: 1 uM
Description: Inhibition of YES1 at 1 uM

[15] = Inhibition of RPS6K at 1 uM
[16] = target: Glycogen synthase kinase-3 alpha (Homo sapiens) (UniProt P49840); assay: Inhibition of GSK3A at 1 uM
[17] = target: Glycogen synthase kinase-3 beta (Homo sapiens) (UniProt P49841); assay: Inhibition of GSK3B at 1 uM
[18] = target: T2, Tyrosine-protein kinase Yes; assay: Inhibition of YES1
[19] = target: Serine/threonine-protein kinase Chk2 (Homo sapiens) (UniProt O96017); assay: Inhibition of CHEK2 at 1 uM
[20] = target: Insulin-like growth factor 1 receptor (Homo sapiens) (UniProt P08069); assay: Inhibition of IGF1R at 1 uM
[21] = target: Cyclin-dependent kinase 2/cyclin A (Homo sapiens) (UniProt P24941+P20248+P78396); assay: Inhibition of CDK2/cyclin A at 1 uM; format: protein-complex assay
[22] = target: Inhibitor of nuclear factor kappa-B kinase subunit beta (Homo sapiens) (UniProt O14920); assay: Inhibition of IKBKB at 1 uM
[23] = target: Protein kinase C beta type (Homo sapiens) (UniProt P05771); assay: Inhibition of PRKCB1 at 1 uM
[24] = target: T3, Tyrosine-protein kinase Lck (Homo sapiens, UniProt P06239); assay: Inhibition of LCK at 1 uM
[25] = Half life in nude mouse liver microsomes; format: ADME, Microsome
[26] = target: Protein kinase C gamma type (Homo sapiens) (UniProt P05129); assay: Inhibition of PRKCG at 1 uM
[27] = target: Vascular endothelial growth factor receptor 3 (Homo sapiens) (UniProt P35916); assay: Inhibition of FLT4 at 1 uM
Mus musculus = assay: Toxicity in human A375 cells xenografted nude mouse; format: organism-based, A-375; conditions: in vivo
[28] = target: 3-phosphoinositide-dependent protein kinase 1 (Homo sapiens) (UniProt O15530); assay: Inhibition of PDK1 at 1 uM
[29] = target: T3, Tyrosine-protein kinase Lck; assay: Inhibition of LCK
[30] = target: Serine/threonine-protein kinase Chk1 (Homo sapiens) (UniProt O14757); assay: Inhibition of CHEK1 at 1 uM
[31] = target: Cyclin-dependent kinase 1/cyclin B (Homo sapiens) (UniProt P06493+P14635+Q8WWL7+O95067); assay: Inhibition of CDK1/cyclin B at 1 uM; format: protein-complex assay
[32] = target: Fibroblast growth factor receptor 2 (Homo sapiens) (UniProt P21802); assay: Inhibition of FGFR2 at 1 uM
[33] = target: RAC-beta serine/threonine-protein kinase (Homo sapiens) (UniProt P31751); assay: Inhibition of AKT2 at 1 uM
[34] = Oral bioavailability in nude mouse at 10 mg/kg; format: ADME, organism-based; conditions: in vivo, read-out: Activity
[35] = AUC (infinity) in nude mouse at 10 mg/kg, po; format: ADME, organism-based; set-up: time infinity, dose 10 mg/kg, route oral; conditions: plasma
[36] = Drug level in tumor tissue of human A375 cells xenografted nude mouse at 25 mg/kg, po after 6 hrs; format: ADME, organism-based, Neoplasm, A-375; set-up: dose 25 mg/kg, route oral; conditions: read-out: Drug uptake

T1 sequence (Q16539 whole entry): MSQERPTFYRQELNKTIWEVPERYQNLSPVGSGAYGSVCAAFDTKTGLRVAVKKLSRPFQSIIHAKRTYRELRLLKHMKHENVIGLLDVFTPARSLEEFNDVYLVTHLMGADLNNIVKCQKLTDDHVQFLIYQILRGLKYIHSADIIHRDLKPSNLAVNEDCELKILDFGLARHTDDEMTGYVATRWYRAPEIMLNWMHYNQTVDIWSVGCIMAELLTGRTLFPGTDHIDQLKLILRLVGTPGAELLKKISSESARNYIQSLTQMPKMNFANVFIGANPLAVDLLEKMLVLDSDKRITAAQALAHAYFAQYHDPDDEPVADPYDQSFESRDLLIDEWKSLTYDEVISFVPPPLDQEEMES
Dual specificity mitogen-activated protein kinase kinase 1 (Homo sapiens), sequence (Q02750 whole entry): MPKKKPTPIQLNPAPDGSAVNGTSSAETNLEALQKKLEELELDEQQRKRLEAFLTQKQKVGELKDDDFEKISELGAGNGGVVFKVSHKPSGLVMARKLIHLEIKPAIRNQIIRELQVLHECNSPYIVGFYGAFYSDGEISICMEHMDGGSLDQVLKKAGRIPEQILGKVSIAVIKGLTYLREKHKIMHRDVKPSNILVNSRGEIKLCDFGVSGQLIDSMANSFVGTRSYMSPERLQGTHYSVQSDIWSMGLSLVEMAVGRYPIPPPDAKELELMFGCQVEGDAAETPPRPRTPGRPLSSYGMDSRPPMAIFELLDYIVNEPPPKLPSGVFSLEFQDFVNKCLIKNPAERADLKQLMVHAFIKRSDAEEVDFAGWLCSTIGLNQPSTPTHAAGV
Tyrosine-protein kinase JAK2 (Homo sapiens), sequence (O60674 whole entry): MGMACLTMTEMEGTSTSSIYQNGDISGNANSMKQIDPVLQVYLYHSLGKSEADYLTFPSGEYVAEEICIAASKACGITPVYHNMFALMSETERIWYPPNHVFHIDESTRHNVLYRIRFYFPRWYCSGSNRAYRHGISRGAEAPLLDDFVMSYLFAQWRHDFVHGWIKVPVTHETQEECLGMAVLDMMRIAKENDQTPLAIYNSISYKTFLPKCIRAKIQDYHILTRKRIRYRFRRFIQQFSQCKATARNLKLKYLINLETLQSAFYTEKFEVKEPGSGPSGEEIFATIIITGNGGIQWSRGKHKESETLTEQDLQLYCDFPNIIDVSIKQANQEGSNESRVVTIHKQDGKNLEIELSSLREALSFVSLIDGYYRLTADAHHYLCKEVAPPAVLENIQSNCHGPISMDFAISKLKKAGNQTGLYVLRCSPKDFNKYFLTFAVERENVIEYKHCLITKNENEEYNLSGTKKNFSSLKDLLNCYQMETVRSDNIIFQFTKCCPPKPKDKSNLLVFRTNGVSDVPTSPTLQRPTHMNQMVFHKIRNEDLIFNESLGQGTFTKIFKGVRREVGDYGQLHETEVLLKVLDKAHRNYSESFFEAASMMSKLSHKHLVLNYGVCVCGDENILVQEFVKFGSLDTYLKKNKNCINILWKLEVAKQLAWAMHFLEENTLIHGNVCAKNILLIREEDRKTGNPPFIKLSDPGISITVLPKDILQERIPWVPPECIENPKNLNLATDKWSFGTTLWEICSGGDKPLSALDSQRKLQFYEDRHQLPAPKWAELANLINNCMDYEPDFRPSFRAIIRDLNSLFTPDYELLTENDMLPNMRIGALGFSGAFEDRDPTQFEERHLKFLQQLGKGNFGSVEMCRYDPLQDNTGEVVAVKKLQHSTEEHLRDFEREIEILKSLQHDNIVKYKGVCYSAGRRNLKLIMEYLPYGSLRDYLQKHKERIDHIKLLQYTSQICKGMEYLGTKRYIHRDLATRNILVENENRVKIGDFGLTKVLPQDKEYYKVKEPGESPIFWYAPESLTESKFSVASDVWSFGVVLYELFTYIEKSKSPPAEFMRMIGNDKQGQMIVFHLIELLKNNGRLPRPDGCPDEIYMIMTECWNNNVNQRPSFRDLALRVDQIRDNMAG
Insulin-like growth factor 1 receptor (Homo sapiens), sequence (P08069 31-736 limits assumed): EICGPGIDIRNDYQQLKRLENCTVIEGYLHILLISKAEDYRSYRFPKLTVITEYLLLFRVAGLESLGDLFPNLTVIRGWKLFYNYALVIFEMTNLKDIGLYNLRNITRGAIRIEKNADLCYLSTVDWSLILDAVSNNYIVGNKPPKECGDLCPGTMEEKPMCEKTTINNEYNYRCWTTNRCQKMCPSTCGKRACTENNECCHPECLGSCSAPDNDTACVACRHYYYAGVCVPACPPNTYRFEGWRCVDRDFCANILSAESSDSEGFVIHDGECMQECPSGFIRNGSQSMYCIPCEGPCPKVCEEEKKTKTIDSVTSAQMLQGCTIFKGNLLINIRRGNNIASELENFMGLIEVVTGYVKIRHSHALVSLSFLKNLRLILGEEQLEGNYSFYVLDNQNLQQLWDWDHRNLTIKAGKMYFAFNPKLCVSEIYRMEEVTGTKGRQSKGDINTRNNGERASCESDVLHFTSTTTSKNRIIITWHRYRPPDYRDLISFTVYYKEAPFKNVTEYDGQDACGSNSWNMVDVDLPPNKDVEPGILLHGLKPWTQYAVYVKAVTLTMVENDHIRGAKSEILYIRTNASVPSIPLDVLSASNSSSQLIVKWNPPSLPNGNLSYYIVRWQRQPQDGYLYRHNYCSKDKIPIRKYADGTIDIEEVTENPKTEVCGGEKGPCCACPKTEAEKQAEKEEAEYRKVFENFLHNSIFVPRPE
Insulin-like growth factor 1 receptor (Homo sapiens), sequence (P08069 741-1367 limits assumed): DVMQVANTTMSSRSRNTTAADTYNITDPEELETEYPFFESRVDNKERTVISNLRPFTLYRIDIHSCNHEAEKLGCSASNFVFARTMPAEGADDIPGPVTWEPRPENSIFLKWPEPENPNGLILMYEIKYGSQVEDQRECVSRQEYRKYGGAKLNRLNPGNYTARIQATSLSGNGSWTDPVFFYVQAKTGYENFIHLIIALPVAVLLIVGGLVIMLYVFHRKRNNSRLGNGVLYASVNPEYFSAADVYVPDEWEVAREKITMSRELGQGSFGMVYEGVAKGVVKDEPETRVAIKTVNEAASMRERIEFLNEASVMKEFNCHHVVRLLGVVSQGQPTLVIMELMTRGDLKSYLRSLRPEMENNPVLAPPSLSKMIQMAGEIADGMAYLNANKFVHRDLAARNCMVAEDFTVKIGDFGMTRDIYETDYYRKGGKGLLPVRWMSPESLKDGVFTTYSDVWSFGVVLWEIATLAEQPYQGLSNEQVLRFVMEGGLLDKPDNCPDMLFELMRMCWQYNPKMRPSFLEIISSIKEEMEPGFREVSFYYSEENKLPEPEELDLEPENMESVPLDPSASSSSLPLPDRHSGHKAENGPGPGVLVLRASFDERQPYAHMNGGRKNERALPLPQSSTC
High affinity nerve growth factor receptor (Homo sapiens), sequence (P04629 33-796 limits assumed): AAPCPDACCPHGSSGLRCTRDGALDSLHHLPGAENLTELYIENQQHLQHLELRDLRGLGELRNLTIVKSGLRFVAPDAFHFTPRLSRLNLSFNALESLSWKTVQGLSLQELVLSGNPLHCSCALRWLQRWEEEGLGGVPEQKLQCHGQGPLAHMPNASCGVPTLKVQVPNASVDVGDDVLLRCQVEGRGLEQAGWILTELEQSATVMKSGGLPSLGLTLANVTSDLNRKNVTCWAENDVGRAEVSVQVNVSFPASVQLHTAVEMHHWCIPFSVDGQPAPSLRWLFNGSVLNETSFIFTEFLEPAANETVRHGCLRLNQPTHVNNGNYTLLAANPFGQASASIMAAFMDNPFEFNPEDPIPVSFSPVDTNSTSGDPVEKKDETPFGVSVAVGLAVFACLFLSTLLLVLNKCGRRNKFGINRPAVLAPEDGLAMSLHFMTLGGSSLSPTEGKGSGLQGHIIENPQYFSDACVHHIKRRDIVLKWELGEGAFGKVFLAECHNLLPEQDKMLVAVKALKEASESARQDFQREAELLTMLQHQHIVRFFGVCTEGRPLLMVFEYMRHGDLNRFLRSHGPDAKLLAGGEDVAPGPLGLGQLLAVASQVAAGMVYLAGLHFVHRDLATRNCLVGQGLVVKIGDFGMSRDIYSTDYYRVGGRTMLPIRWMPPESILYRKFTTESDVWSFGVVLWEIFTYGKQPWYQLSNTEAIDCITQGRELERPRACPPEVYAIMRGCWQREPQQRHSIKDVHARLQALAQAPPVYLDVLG
Glycogen synthase kinase-3 beta (Homo sapiens), sequence (P49841 whole entry, looked up): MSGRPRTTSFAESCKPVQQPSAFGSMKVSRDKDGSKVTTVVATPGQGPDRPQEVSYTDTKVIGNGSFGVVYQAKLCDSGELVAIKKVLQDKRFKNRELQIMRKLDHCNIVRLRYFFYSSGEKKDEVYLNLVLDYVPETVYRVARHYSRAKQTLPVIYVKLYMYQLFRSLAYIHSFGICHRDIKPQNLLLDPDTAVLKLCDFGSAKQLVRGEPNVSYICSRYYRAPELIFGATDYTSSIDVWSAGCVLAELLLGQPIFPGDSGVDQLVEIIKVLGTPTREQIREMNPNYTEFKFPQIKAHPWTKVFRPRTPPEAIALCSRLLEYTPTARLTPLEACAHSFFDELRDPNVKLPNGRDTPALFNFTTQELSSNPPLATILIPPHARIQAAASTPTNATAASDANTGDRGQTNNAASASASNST
RAC-beta serine/threonine-protein kinase (Homo sapiens), sequence (P31751 whole entry): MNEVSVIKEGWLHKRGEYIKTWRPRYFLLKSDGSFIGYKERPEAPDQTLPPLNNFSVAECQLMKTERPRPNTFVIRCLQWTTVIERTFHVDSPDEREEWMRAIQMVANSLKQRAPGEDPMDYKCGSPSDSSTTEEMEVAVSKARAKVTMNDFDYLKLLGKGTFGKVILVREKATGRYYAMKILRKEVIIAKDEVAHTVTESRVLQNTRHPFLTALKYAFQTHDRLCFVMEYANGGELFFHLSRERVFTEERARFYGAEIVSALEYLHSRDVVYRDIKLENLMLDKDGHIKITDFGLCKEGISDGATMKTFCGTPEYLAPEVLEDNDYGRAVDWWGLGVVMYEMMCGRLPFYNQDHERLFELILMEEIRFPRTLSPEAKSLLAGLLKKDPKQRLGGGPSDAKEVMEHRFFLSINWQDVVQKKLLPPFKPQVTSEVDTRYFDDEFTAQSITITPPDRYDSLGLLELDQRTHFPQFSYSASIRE

CN1C[C@@H]2C[C@H]1CN2c1cc(F)c(-c2ccnc3c(-c4cccc5[nH]ncc45)c(-c4ccncc4)nn23)c(F)c1
inhibition [1]: 39%
inhibition [2]: 0%
inhibition [3]: 100%
inhibition [4]: 81%
inhibition [5]: 21%
inhibition [6]: -6%
inhibition [7]: 12%
inhibition [8]: 14%
inhibition [9]: 25%
inhibition [10]: 23%
inhibition [11]: 6%
IC50 [12]: 0.145 µM
inhibition [13]: 18%
inhibition [14]: 68%
inhibition [15]: 14%
inhibition [16]: 34%
inhibition [17]: 35%
IC50 [18]: 0.246 µM
inhibition [19]: 7%
inhibition [20]: 5%
inhibition [21]: 4%
inhibition [22]: 5%
inhibition [23]: 39%
inhibition [24]: 73%
half-life [25]: > 30 min
inhibition [26]: 15%
inhibition [27]: 17%
Activity (Mus musculus): Non-toxic
inhibition [28]: 3%
IC50 [29]: 0.505 µM
inhibition [30]: 0%
inhibition [31]: 0%
inhibition [32]: 66%
inhibition [33]: 9%
bioavailability [34]: 54%
AUC(0-inf) [35]: 4 µg·h/mL
concentration at 6 h [36]: 6.6 µM
